Results published in US7038033B2, “Nematode neuromuscular junction GABA receptors subunits” (University of Utah Research Foundation, priority 1998, dated 2006).

Columns and labels:
UNC-49C = experiment: Two-electrode voltage clamp of Xenopus oocytes injected with UNC-49C RNA; assay type: cell-based, C. elegans; settings: any concentration
Protocol: (§1) Oocytes were removed from Xenopus laevis frogs anesthetized by immersion in 0.2% tricaine for 15-30 minutes. Harvested ovarian lobes were defolliculated by incubation in 2 mg/ml of collagenase (Type IA, Sigma) for 2 hours at room temperature on an orbital shaker in calcium-free ND-96 solution containing in mM: 96 NaCl, 2 KCl, 1 MgCl2, and 5 HEPES (pH=7.6). The oocytes were rinsed 5-6 times with a Barth's solution that contained (in mM): 88 NaCl, 1 KCl, 0.41 CaCl2, 0.33 Ca(NO3)2, 1 MgSO4, 2.4 NaHCO3 and 10 HEPES (pH=7.4), and selected stage V-VI oocytes were stored at 18C in Barth's solution supplemented with 1 mM Na-Pyruvate, 0.01 mg/ml gentamycin and an antibiotic-antimycotic solution containing 100 units/ml of penicillin, 100 μg/ml streptomycin and 0.25 μg/ml of Amphotericin B (Gibco BRL).
(§2) Oocytes were injected with cRNA (prepared using the mMessage mMachine kit, Ambion) into the cytoplasm 24 hours later. Glass capillary tubes (World Precision Instruments) were pulled to a fine tip on a vertical micropipette puller (David Kopf) and broken back to an outside diameter of 21 μm. RNA stocks were diluted to a final concentration of 0.75 μg/μl and injected into the oocytes (32 nl) with a microinjector (World Precision Instruments).
(§3) Electrophysiological recordings were performed 3-7 days following injection and were carried out at room temperature in a control Ringers solution containing in mM: 115 NaCl, 2.5 KCl, 1.0 BaCL2, and 10 HEPES (pH=7.4). Two electrode voltage clamp recordings were obtained with a Geneclamp amplifier (Axon Instruments) using […] KCl-filled microelectrodes (1-5 M). Recordings were carried out at a holding potential of −60 mV. Concentration-effect data were fit to the logistic equation: I=Imax/{1+(EC50/[agonist])^nH}, where Imax is the maximal current, [agonist] is the concentration, EC50 is the concentration of agonist resulting in half maximal activation and nH is an empirical parameter describing the steepness of fit and having the same meaning as the Hill coefficient. NFIT (Island Products) was used for non-linear curve fitting. Data are presented as the mean S.E.M.; n is the number of oocytes tested. All combinations of subunits were tested in parallel in at least two independent experiments (at least 4 oocytes for each combination of mRNAs per experiment). The effect of incorporating the UNC-49C subunit was consistent from one experiment to another. Single channel recordings were performed as described in except that 1 mM GABA was applied continuously. Single channel conductance was determined by fitting Gaussian curves to all points histograms.

[1] = molecular target: UNC-49B homomeric GABA receptor (Caenorhabditis elegans, UniProt G5EEY3); experiment: Two-electrode voltage clamp of Xenopus oocytes injected with UNC-49B.1 mRNA; assay type: cell-based, C. elegans; settings: for response of oocytes to agonist: applied at 1 mM or 10 mM
Protocol: as §1, §2, §3

[2] = molecular target: UNC-49B/C heteromeric GABA receptor (Caenorhabditis elegans, UniProt G5EE10+G5EEY3); experiment: Two-electrode voltage clamp of Xenopus oocytes injected with equal amounts of UNC-49B and UNC-49C RNA; assay type: cell-based; settings: Xenopus oocytes co-expressing UNC-49B and UNC-49C
Protocol: as §1
Oocytes were injected with cRNA (prepared using the mMessage mMachine kit, Ambion) into the cytoplasm 24 hours later. […]
Electrophysiological recordings were performed 3-7 days following injection and were carried out at room temperature in a control Ringers solution containing in mM: 115 NaCl, 2.5 KCl, 1.0 BaCL2, and 10 HEPES (pH=7.4). […] Single channel conductance was determined by fitting Gaussian curves to all points histograms.

Sequence of UNC-49B homomeric GABA receptor (G5EEY3 entry or part of it): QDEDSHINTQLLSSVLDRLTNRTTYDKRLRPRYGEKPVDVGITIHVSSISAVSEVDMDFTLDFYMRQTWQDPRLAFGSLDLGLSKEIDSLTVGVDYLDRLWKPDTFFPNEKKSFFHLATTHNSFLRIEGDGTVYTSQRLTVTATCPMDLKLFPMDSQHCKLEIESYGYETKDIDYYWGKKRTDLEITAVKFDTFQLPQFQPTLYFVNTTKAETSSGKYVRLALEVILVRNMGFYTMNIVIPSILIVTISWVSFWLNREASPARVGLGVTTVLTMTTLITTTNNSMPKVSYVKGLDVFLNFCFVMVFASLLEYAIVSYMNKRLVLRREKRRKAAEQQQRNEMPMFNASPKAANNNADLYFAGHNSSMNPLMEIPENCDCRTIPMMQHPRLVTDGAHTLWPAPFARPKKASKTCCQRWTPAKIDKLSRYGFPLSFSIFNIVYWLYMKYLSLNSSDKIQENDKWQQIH
Sequence of UNC-49B/C heteromeric GABA receptor (G5EE10 entry or part of it): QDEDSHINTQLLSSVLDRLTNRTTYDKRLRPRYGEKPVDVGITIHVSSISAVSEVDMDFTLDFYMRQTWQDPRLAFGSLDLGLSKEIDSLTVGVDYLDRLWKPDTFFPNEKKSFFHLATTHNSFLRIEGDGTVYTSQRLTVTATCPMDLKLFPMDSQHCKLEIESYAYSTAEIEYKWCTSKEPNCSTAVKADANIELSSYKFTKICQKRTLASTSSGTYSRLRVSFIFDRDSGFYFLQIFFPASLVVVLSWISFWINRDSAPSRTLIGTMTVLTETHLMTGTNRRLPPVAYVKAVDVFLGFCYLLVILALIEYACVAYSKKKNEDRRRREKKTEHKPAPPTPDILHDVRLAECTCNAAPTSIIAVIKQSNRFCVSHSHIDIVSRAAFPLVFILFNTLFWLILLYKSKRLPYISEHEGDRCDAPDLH
Sequence of UNC-49B/C heteromeric GABA receptor (G5EEY3 entry or part of it): as the sequence (G5EEY3 entry or part of it) above

| Structure (SMILES) | response of oocytes to agonist (UNC-49C) | current when exposed to agonist ([1]; UNC-49B.1-injected Xenopus oocytes) | EC50 ([1]; UNC-49B.1-injected Xenopus oocytes, holding potential -60 mV, representative experiment, read-out: GABA concentration required to produce half-maximal channel activity (EC50)) | Hill coefficient ([1]; UNC-49B.1-injected Xenopus oocytes, representative experiment) | EC50 [2] | Hill coefficient [2] | response of oocytes to agonist ([1]; UNC-49B-expressing oocytes) | currents produced by agonist ([1]; UNC-49B-expressing oocytes, 10 mM, n=4) |
| --- | --- | --- | --- | --- | --- | --- | --- | --- |
| NCCCC(=O)O [GABA, gamma-aminobutyric acid] | failed to respond | robust, desensitizing, dose-dependent current | 43.7 µM | 2.94 | 108 µM | 1.33 |  |  |
| N[C@@H](CCC(=O)O)C(=O)O [glutamate] | equally unresponsive |  |  |  |  |  | did not respond |  |
| NCC(=O)O [glycine] | equally unresponsive |  |  |  |  |  | did not respond |  |
| NCCC(=O)O [β-alanine] | equally unresponsive |  |  |  |  |  |  | only slightly greater than baseline noise |
